pEC50: −log10 of the molar value. Activity calls are given as the source filed them.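 How the source made its calls: active means mean EC50 at or below 20 µM; inactive means the rest.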
target: CHO-CHOP luciferase reporter, luminescence, UPR apoptotic arm; experiment: activators of PERK-eIF2a-CHOP apoptotic arm – cell-based, luciferase luminescence, set 2, counter-screen for UPR adaptive arm activator project, SAR follow-up (AID 588597)

SMILES | EC50 | pEC50
O=C(Nc1ccc(Br)c(C(F)(F)F)c1)c1cc(-c2ccncc2)nc2ccccc12 | inactive | –
O=C(Nc1ccc(C(F)(F)F)cc1)c1cc(-c2ccncc2)nc2ccccc12 | – | 5.70
Cc1ccc(NC(=O)c2cc(-c3ccncc3)nc3ccccc23)cc1 | – | 5.07
O=C(Nc1cccc(Br)c1)c1cc(-c2ccncc2)nc2ccccc12 | > 80 µM (inactive) | –
COc1cccc(NC(=O)c2cc(-c3ccncc3)nc3ccccc23)c1 | > 80 µM (inactive) | –
Cc1cc(NC(=O)c2cc(-c3ccccc3)nc3ccccc23)ccc1Br | > 80 µM (inactive) | –
Cc1cc(Br)cc(NC(=O)c2cc(-c3ccncc3)nc3ccccc23)c1 | inactive | –
Cc1cccc(NC(=O)c2cc(-c3ccncc3)nc3ccccc23)c1 | > 80 µM (inactive) | –
O=C(Nc1cccc(C(F)(F)F)c1)c1cc(-c2ccncc2)nc2ccccc12 | > 80 µM (inactive) | –

Other lines, results leading:

EC50 | pEC50 | SMILES
> 80 µM (inactive) | – | Cc1cc(NC(=O)c2cc(-c3ccncc3)nc3ccccc23)ccc1Cl
– | 5.13 | O=C(Nc1ccc(Cl)cc1)c1cc(-c2ccncc2)nc2ccccc12
inactive | – | O=C(Nc1cc(F)ccc1F)c1cc(-c2ccncc2)nc2ccccc12
> 80 µM (inactive) | – | Cc1cc(NC(=O)c2cc(-c3ccncc3)nc3ccccc23)ccc1F
> 80 µM (inactive) | – | O=C(Nc1ccccc1Br)c1cc(-c2ccncc2)nc2ccccc12
> 80 µM (inactive) | – | O=C(Nc1cccc(F)c1F)c1cc(-c2ccncc2)nc2ccccc12
> 80 µM (inactive) | – | O=C(Nc1cccc(F)c1Br)c1cc(-c2ccncc2)nc2ccccc12
inactive | – | O=C(Nc1ccc(F)cc1)c1cc(-c2ccncc2)nc2ccccc12
> 80 µM (inactive) | – | O=C(Nc1ccc(F)c(F)c1)c1cc(-c2ccncc2)nc2ccccc12
> 80 µM (inactive) | – | O=C(Nc1cccc(Cl)c1)c1cc(-c2ccncc2)nc2ccccc12
> 80 µM (inactive) | – | O=C(Nc1cccc(F)c1)c1cc(-c2ccncc2)nc2ccccc12
